Experimental data taken from ChEMBL document CHEMBL4342516, “Discovery of Membrane-Bound Pyrophosphatase Inhibitors Derived from an Isoxazole Fragment” (ACS Med Chem Lett, 2020).
Calls of active or inactive are those of the source. The rule behind the calls is not given here.

test system: Thermotoga maritima; experiment: Inhibition of Thermotoga maritima membrane bound pyrophosphatase at 100 uM using sodium pyrophosphate as substrate preincubated for 5 mins followed by substrate addition and measured after 5 mins by spectrophotometry relative to control; settings: not given

Row | Compound | inhibition [%]
1 | Nc1ccc(S(=O)(=O)N2CCCC2C(=O)O)cc1 (stereo not given) | > 50
2 | O=c1[nH]c2ccc(S(=O)(=O)CCO)cc2o1 | > 50
3 | O=C(O)c1cc(-c2ccccc2[N+](=O)[O-])on1 | > 50
4 | CCOC(=O)c1ccc(S(=O)(=O)NC2=NC(=O)CS2)cc1 | > 50

test system: not listed separately; experiment: Inhibition of Thermotoga maritima membrane bound pyrophosphatase at 100 uM using sodium pyrophosphate as substrate preincubated for 5 mins followed by substrate addition and measured after 5 mins by spectrophotometry; settings: not given

Row | IC50 | Compound
5 | Not Active | Cc1c(-c2cc(C(=O)O)no2)cnn1C
6 | Not Active | CC(C)(C)c1cc(C(=O)NCC(=O)O)cc(C(C)(C)C)c1
7 | Not Active | CC(C)(C)c1cc(CCC(=O)O)cc(C(C)(C)C)c1
8 | Not Active | O=C(O)c1cc(-c2ccc([N+](=O)[O-])cc2)[nH]n1
9 | Not Active | Cc1cc(C)cc(-c2cc(C(=O)Nc3ccccc3Br)no2)c1

same assay, conditions: read-out: IC50

Row | Compound | IC50 [µM]
10 | O=C(O)c1cc(-c2ccccc2)n[nH]1 | 130
11 | CC(C)(C)c1cc(C(=O)NCCCn2ccnc2)cc(C(C)(C)C)c1 | 210
12 | Nc1ccc(S(=O)(=O)N2CCCC2C(=O)O)cc1 (stereo not given) | 110
13 | CCOC(=O)c1cc(-c2cc(C(C)(C)C)cc(C(C)(C)C)c2)on1 | 72
14 | O=C(O)c1cnc(-c2ccccc2)s1 | 29
15 | CC(C)(C)c1cc(-c2cc(C(=O)Oc3ccccc3Br)no2)cc(C(C)(C)C)c1 | 10
16 | O=C(Oc1ccccc1Br)c1cnc(-c2ccccc2)s1 | 48
17 | CCOC(=O)c1cc(-c2ccc(OC)c(S(=O)(=O)Nc3cccc4c3OCO4)c2)on1 | 36
18 | CC(C)(C)c1cc(C(=O)Nc2nc3ccccc3s2)cc(C(C)(C)C)c1 | 91
19 | O=c1[nH]c2ccc(S(=O)(=O)CCO)cc2o1 | 43
20 | CC(C)(C)c1cc(C(=O)Nc2nccs2)cc(C(C)(C)C)c1 | 39
21 | Cc1cc(C)cc(-c2cc(C(=O)Oc3ccccc3)no2)c1 | 26
22 | Cc1nc(-c2cc(C(=O)Oc3ccccc3Br)no2)cs1 | 460
23 | O=C(O)c1cc(-c2ccccc2[N+](=O)[O-])on1 | 71
24 | CC(C)(C)c1cc(C(=O)Nc2ccc(S(N)(=O)=O)cc2)cc(C(C)(C)C)c1 | 47
25 | CC(C)(C)c1cc(C(=O)Nc2ccc([N+](=O)[O-])cc2)cc(C(C)(C)C)c1 | 100
26 | Cc1cccc(-c2cc(C(=O)Oc3ccccc3Br)no2)c1 | 6.1
27 | CC(C)(C)c1cc(C(=O)Nc2ccccc2Br)cc(C(C)(C)C)c1 | 47
28 | Cc1cc(C)cc(-c2cc(C(=O)Oc3ccccc3Br)no2)c1 | 6.9
29 | CC(C)(C)c1cccc(-c2cc(C(=O)Oc3ccccc3Br)no2)c1 | 6.7
30 | O=C(O)c1csc(-c2ccc([N+](=O)[O-])cc2)n1 | 80
31 | CCOC(=O)c1ccc(S(=O)(=O)NC2=NC(=O)CS2)cc1 | 120
32 | Cc1nc(-c2cc(C(=O)O)no2)cs1 | 17

test system: not listed separately; experiment: (§1) Inhibition of Plasmodium falciparum 3D7 pyrophosphatase-VP1 expressed in baculovirus infected insect cells using sodium pyrophosphate as substrate preincubated for 5 mins followed by substrate addition and measured after 10 mins by spectrophotometry; settings: not given

Row | Compound | IC50 [µM]
33 | Cc1cc(C)cc(-c2cc(C(=O)Oc3ccccc3Br)no2)c1 | 55

test system: Plasmodium falciparum; experiment: as §1; settings: not given

Row | Compound | inhibition
34 | CC(C)(C)c1cc(-c2cc(C(=O)Oc3ccccc3Br)no2)cc(C(C)(C)C)c1 | inactive

test system: Plasmodium falciparum; experiment: Antiplasmodial activity against Plasmodium falciparum 3D7 infected in human erythrocytes assessed as growth inhibition after 72 hrs by SYBR Gren-I fluorescent dye based method; format: functional, organism-based; settings: 3D7, 72 h

Row | Compound | IC50 [µM]
35 | Cc1cc(C)cc(-c2cc(C(=O)Oc3ccccc3Br)no2)c1 | 99
